The record followed here is ChEMBL document CHEMBL1772977, “Synthesis and biological evaluation of novel 4-benzylpiperazine ligands for sigma-1 receptor imaging” (Bioorg Med Chem, 2011).

Broadly, the Ki is a measure of affinity in units of concentration, obtained from inhibition or displacement.

The target of the assay is 3-beta-hydroxysteroid-Delta(8),Delta(7)-isomerase (Homo sapiens, UniProt Q15125). Description: Binding affinity to emopamil binding protein.
3-beta-hydroxysteroid-Delta(8),Delta(7)-isomerase, sequence (Q15125 whole entry): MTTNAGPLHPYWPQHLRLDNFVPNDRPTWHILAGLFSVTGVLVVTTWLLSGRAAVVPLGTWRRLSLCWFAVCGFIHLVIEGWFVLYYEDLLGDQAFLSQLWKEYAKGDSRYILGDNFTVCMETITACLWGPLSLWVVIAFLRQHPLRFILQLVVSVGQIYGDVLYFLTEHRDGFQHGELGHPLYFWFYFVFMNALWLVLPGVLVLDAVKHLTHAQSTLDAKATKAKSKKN

`COc1cc(CCN2CCN(CCCc3ccccc3)CC2)ccc1O[11CH3]` had an inhibitory constant (Ki) of 1.72 nM.
